Results reported in ChEMBL document CHEMBL1201862, “PubChem BioAssay data set” (2004).
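Growth conditions: 96-well plates. Treatment: test compound, 48 hours, 5 concentrations. Analysis: linear interpolation between bracketing concentrations; unreached endpoints set to highest concentration. Here, GI50 denotes the concentration required for 50% inhibition of growth.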 Calls of active or inactive are those of the source. No stated cut-off is given here; in the data, active = GI50 up to about 1.1 µM and inactive = higher.

Columns and labels:
Assay in all cases: NCI-60 cell line screen, 48 h
CCRF-CEM = system: CCRF-CEM
EKVX = system: EKVX
HCT-15 = system: HCT-15
K562 = system: K562
MDA-MB-435 = system: MDA-MB-435
MOLT-4 = system: MOLT-4
NCI-H23 = system: NCI-H23
OVCAR-3 = system: OVCAR-3
OVCAR-8 = system: OVCAR-8
SF-268 = system: SF-268
SK-MEL-2 = system: SK-MEL-2
SK-MEL-5 = system: SK-MEL-5
SK-OV-3 = system: SK-OV-3
SN12C = system: SN12C
SR = system: SR
TK-10 = system: TK-10
U-251 = system: U-251
UACC-62 = system: UACC-62
UO-31 = system: UO-31
NCI-H226 = system: NCI-H226

Structure (SMILES) | GI50 (CCRF-CEM) | GI50 (EKVX) | GI50 (HCT-15) [µM] | GI50 (K562) | GI50 (MDA-MB-435) | GI50 (MOLT-4) | GI50 (NCI-H23) | GI50 (OVCAR-3) | GI50 (OVCAR-8) | GI50 (SF-268) | GI50 (SK-MEL-2) | GI50 (SK-MEL-5) | GI50 (SK-OV-3) | GI50 (SN12C) | GI50 (SR) | GI50 (TK-10) | GI50 (U-251) | GI50 (UACC-62) | GI50 (UO-31) | GI50 (NCI-H226)
O=C(O)/C=c1/c2ccccc2n2nc3ccccc3c12 | 33.2 µM (inactive) | 37.1 µM (inactive) | 26.8 | 36.6 µM (inactive) | 31.6 µM (inactive) | 23 µM (inactive) | 27.7 µM (inactive) | 33.5 µM (inactive) | 21.5 µM (inactive) | 38.4 µM (inactive) | 39.7 µM (inactive) | 14.2 µM (inactive) | 22.8 µM (inactive) | 26.7 µM (inactive) | 16.6 µM (inactive) | 30.3 µM (inactive) | 33.6 µM (inactive) | 17.5 µM (inactive) | 37.6 µM (inactive) | –
O=C1CC(c2ccco2)C2(C(=O)NC(=O)NC2=O)C(c2ccco2)C1 (stereo unspecified) | > 75 µM (inactive) | > 75 µM (inactive) | > 75 | > 75 µM (inactive) | > 75 µM (inactive) | > 75 µM (inactive) | > 75 µM (inactive) | > 75 µM (inactive) | > 75 µM (inactive) | > 75 µM (inactive) | > 75 µM (inactive) | > 75 µM (inactive) | > 75 µM (inactive) | > 75 µM (inactive) | > 75 µM (inactive) | > 75 µM (inactive) | > 75 µM (inactive) | > 75 µM (inactive) | > 75 µM (inactive) | –
O=c1[nH]nc(-c2ccc3ccccc3c2)[nH]1 | > 100 µM (inactive) | 0.282 µM (active) | > 100 | > 100 µM (inactive) | > 100 µM (inactive) | > 100 µM (inactive) | > 100 µM (inactive) | > 100 µM (inactive) | > 100 µM (inactive) | > 100 µM (inactive) | > 100 µM (inactive) | – | – | > 100 µM (inactive) | 45.1 µM (inactive) | > 100 µM (inactive) | > 100 µM (inactive) | 21 µM (inactive) | 43.3 µM (inactive) | > 100 µM (inactive)
COc1cc(/C=C2\CCC(C)C3C2=NN(C(C)=O)C3c2cc(OC)c(OC)c(OC)c2)cc(OC)c1OC (stereo unspecified) | > 100 µM (inactive) | > 100 µM (inactive) | 99.8 | > 100 µM (inactive) | > 100 µM (inactive) | > 100 µM (inactive) | > 100 µM (inactive) | > 100 µM (inactive) | > 100 µM (inactive) | > 85.1 µM (inactive) | – | > 57 µM (inactive) | > 100 µM (inactive) | > 100 µM (inactive) | > 52.6 µM (inactive) | > 81.1 µM (inactive) | > 85.5 µM (inactive) | 38.8 µM (inactive) | – | > 100 µM (inactive)
O=c1oc2ccccc2cc1-c1cc2ccccn2c1 | > 100 µM (inactive) | > 100 µM (inactive) | > 100 | > 100 µM (inactive) | > 100 µM (inactive) | > 100 µM (inactive) | > 100 µM (inactive) | > 100 µM (inactive) | > 100 µM (inactive) | > 100 µM (inactive) | > 100 µM (inactive) | > 100 µM (inactive) | > 100 µM (inactive) | – | – | > 100 µM (inactive) | > 100 µM (inactive) | > 100 µM (inactive) | > 100 µM (inactive) | > 100 µM (inactive)
COC(=O)[C@]12CCC(=O)N1[C@H](C(=O)O)Cc1c2[nH]c2ccccc12 | > 100 µM (inactive) | > 100 µM (inactive) | > 100 | > 100 µM (inactive) | > 100 µM (inactive) | > 100 µM (inactive) | > 100 µM (inactive) | > 100 µM (inactive) | > 100 µM (inactive) | > 100 µM (inactive) | > 100 µM (inactive) | > 100 µM (inactive) | > 100 µM (inactive) | > 100 µM (inactive) | > 100 µM (inactive) | > 100 µM (inactive) | > 100 µM (inactive) | > 100 µM (inactive) | > 100 µM (inactive) | –
CC(=O)Nc1ccc2c(C)c3c4ccccc4n(C)c3nc2n1 | 18.7 µM (inactive) | 29 µM (inactive) | 11.4 | – | 18.7 µM (inactive) | 5.83 µM (inactive) | 19.3 µM (inactive) | 26.1 µM (inactive) | 17.9 µM (inactive) | 17.8 µM (inactive) | 20.6 µM (inactive) | 9.29 µM (inactive) | – | 16.4 µM (inactive) | 10.6 µM (inactive) | 32.9 µM (inactive) | – | 20.1 µM (inactive) | 11.4 µM (inactive) | 29.6 µM (inactive)
COc1cc(CNC(=S)CCCCCCCCCCC(C)C)ccc1O | 1.19 µM (inactive) | 62.8 µM (inactive) | 63 | 35.2 µM (inactive) | 41.9 µM (inactive) | 5.92 µM (inactive) | 28.7 µM (inactive) | – | 49 µM (inactive) | > 100 µM (inactive) | – | 36.2 µM (inactive) | > 100 µM (inactive) | 92.3 µM (inactive) | 3.01 µM (inactive) | > 100 µM (inactive) | 72.1 µM (inactive) | 34.4 µM (inactive) | 11.9 µM (inactive) | 18.4 µM (inactive)
